Measurements taken from PMC7288026, “Novel Class of Chalcone Oxime Ethers as Potent Monoamine Oxidase-B and Acetylcholinesterase Inhibitors” (Molecules, 2020).
“And” between values parts separate entries of the source, which are not always exact repeats. Equal entries are not always repeated. Where two headings read alike, the source gives them in different places.

What was measured:
[1] = molecular target: T1, AChE (Type VI-S from Electrophorus electricus) (Electrophorus electricus, UniProt O42275); assay: AChE inhibition assay (DTNB / acetylthiocholine iodide); format: biochemical; conditions: for Residual Activity (%) AChE (10 µM) / remaining activity at 10 µM: compound at 10 µM, mean ± standard error of duplicate experiments; for remaining activity at 10 µM: read-out: Residual Activity (%) AChE (10 µM)
T1 construct: purchased Sigma-Aldrich Type VI-S
T1 sequence (O42275 24-633): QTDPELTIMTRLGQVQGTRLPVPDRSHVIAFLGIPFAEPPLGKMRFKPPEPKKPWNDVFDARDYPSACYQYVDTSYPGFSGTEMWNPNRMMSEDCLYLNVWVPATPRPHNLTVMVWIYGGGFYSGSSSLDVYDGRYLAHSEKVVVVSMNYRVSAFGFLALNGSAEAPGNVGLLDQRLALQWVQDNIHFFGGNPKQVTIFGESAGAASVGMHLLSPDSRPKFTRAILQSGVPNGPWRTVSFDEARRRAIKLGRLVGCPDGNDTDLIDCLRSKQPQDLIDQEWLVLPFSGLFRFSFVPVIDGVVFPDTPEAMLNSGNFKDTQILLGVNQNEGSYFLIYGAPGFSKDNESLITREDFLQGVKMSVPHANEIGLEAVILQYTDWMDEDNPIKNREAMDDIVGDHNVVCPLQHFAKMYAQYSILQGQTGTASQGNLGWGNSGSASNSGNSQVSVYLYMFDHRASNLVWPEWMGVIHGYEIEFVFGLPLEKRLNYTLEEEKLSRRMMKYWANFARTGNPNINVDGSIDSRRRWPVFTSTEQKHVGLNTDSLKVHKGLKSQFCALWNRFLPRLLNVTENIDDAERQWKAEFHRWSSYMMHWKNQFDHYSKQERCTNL
Protocol: (§1) AChE activity was measured using Type VI-S from Electrophorus electricus in the presence of 0.5 mM 5,5’-dithiobis(2-nitrobenzoic acid) and 0.5 mM acetylthiocholine iodide, as described previously. Enzymes and chemicals were purchased from Sigma–Aldrich (St. Louis, MO, USA).
Kinetic experiments were carried out at five substrate and three inhibitor concentrations.

[2] = molecular target: T2, MAO-B (Homo sapiens, UniProt P27338); assay: biochemical; conditions: for SI (selectivity index, ratio of IC50 MAO-A to MAO-B): MAO-A vs. MAO-B IC50 ratio; for IC50: mean ± standard error of duplicates, reference compounds after 30 min preincubation with enzyme, read-out: IC50 (µM) MAO-B; for remaining activity at 1 µM: read-out: Residual Activity (%) MAO-B (1.0 µM)
T2 construct: purchased Sigma-Aldrich
T2 sequence (P27338 1-520): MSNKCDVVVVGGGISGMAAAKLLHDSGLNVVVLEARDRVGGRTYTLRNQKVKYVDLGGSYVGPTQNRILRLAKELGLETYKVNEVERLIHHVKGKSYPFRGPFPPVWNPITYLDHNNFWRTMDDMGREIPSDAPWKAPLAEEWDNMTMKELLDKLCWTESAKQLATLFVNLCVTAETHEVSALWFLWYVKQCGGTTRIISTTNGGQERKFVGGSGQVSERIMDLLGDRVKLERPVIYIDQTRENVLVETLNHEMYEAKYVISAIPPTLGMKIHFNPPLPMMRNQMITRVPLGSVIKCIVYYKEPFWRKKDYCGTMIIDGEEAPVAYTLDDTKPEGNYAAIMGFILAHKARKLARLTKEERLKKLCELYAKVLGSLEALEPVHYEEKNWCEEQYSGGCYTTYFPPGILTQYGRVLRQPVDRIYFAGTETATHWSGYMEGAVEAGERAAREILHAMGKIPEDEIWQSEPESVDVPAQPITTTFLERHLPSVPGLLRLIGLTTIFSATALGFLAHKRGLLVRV
Protocol: as §1, with “Recombinant hMAO-A and hMAO-B activities were assayed while using kynuramine (0.06 mM) and benzylamine (0.3 mM) as substrates, respectively, as described previously. […] AChE” for “AChE”, “USA). […]” for “USA).”

[3] = molecular target: T3, recombinant hMAO-A (Homo sapiens, UniProt P21397); assay: MAO-A inhibition assay (kynuramine substrate); format: biochemical; conditions: for IC50: mean ± standard error of duplicates, reference compounds after 30 min preincubation with enzyme
T3 construct: purchased Sigma-Aldrich
T3 sequence (P21397 1-527): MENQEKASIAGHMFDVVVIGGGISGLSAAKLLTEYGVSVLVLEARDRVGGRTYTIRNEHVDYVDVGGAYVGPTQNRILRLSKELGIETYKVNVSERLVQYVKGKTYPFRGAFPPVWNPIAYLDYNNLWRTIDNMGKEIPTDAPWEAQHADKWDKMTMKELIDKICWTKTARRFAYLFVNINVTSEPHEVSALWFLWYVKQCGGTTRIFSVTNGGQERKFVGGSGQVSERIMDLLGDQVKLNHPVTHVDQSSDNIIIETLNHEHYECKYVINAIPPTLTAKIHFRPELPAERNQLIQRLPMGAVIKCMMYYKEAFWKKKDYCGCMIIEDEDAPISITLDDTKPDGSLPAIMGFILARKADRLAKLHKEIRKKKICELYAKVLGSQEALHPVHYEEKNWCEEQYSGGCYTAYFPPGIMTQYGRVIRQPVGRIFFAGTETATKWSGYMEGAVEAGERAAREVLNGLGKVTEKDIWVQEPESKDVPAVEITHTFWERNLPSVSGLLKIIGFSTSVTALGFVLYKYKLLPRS
Protocol: as §1, with “Recombinant hMAO-A and hMAO-B activities were assayed while using kynuramine (0.06 mM) and benzylamine (0.3 mM) as substrates, respectively, as described previously. […] AChE” for “AChE”
AChE inhibitory activities were also determined, except at a concentration of 10 µM. […] Kinetic experiments were carried out at five substrate and three inhibitor concentrations.

[4] = compound at 1.0 µM, mean ± standard error of duplicate experiments, read-out: Residual Activity (%) MAO-A (1.0 µM)

SMILES	IC50 [1] [µM]	Residual Activity (%) AChE (10 µM) [1] [%]	remaining activity at 10 µM [1] [%]	SI (selectivity index, ratio of IC50 MAO-A to MAO-B) [2]	IC50 [2] [µM]	remaining activity at 1 µM [2] [%]	IC50 [3] [µM]	remaining activity at 1 µM ([3]; read-out: Residual Activity (%) MAO-A (1.0 µM), compound at 1.0 µM, mean ± standard error of duplicate experiments) [%]	remaining activity at 1 µM [3, 4] [%]	Residual Activity (%) MAO-A (1.0 µM) ([3]; compound at 1.0 µM, mean ± standard error of duplicate experiments, 1 µM) [%]	MAO-A potency relative to pargyline (times more potent) ([3]; ratio of IC50 values) [times]	MAO-A potency relative to toloxatone (times more potent) ([3]; ratio of IC50 values) [times]	MAO-B potency relative to clorgyline (times more potent) [2]	MAO-B potency relative to lazabemide (times more potent) [2] [times]
C/C(=N\Oc1ccc(/C=C/C(=O)c2cccc3ccccc23)cc1)c1cccs1 [COE-9]	8.39 ± 2.14	46.7 ± 4.27	< 50	20.6	0.037 ± 0.0057	9.91 ± 1.83	7.64 ± 0.16	71.4 ± 0.51						
COC(=O)c1ccc(O/N=C(/C=C/c2ccc(OC)cc2)c2ccc(OC)cc2)cc1 [COE-18]	10.6 ± 0.26		58.3 ± 5.3	>11.8	0.85 ± 0.12	33.3 ± 0.52	> 10		88.1 ± 0.99					
COc1cc(/C=C/C(=O)c2ccc(ON=C(c3ccccc3)c3ccccc3)cc2)cc(OC)c1OC [COE-15]	> 40		56.9 ± 1.4	>10.5	0.95 ± 0.029	36.9 ± 9.49	> 10		95 ± 3.03					
COc1ccc(/C=C/C(=O)c2ccc(O/N=C(/C=C/c3ccc(OC)cc3)c3ccc(OC)cc3)cc2)cc1 [COE-23]	9.16 ± 0.021		57.3 ± 1.34	>66.7	0.15 ± 0.021	25.8 ± 4.78	> 10		85.1 ± 4.01					
C/C(=N\Oc1ccc(/C=C/C(=O)c2ccccc2)cc1)c1ccc(F)cc1 [COE-5]	7.06 ± 1.5	46.5 ± 0.71	< 50	>8.9	1.12 ± 0.1	57.5 ± 7.01	> 10		95.1 ± 2.68					
COc1cccc(/C=C/C(=O)c2ccc(O/N=C(\C)c3cccs3)cc2)c1 [COE-13]	> 40		57.6 ± 1.96	6.8	0.13 ± 0.0069	31.9 ± 9.75	0.88 ± 0.03		< 50	46.2 ± 1.07	2.8	1.1		
COc1ccc(/C=C/C(=N/Oc2ccc(/C=C/C(=O)c3ccccc3)cc2)c2ccc(OC)cc2)cc1 [COE-19]	5.35 ± 0.68	39.0 ± 0.45	< 50	>31.3	0.32 ± 0.015	19.2 ± 3.06	> 10		85.3 ± 0.99					
COc1ccc(C(=O)/C=C/c2ccc(O/N=C(\C)c3ccc(OC)cc3)cc2)cc1 [COE-2]	15.2 ± 0.55		66.5 ± 3.36	>38.5	0.26 ± 0.055	27.6 ± 2.44	> 10		69.9 ± 0.51					
COc1ccc(C(/C=C/c2ccccc2)=N\Oc2ccc(/C=C/C(=O)c3ccc(C)cc3)cc2)cc1 [COE-21]	9.65 ± 1.2	49.4 ± 2.90	< 50	441.7	0.036 ± 0.0019	-2.19 ± 0.08	15.9 ± 0.59		85.8 ± 1.47					
O=C(/C=C/c1ccc(ON=C(c2ccccc2)c2ccccc2)cc1)c1ccc(F)cc1 [COE-7]	> 40		76.2 ± 1.02	392.9	0.028 ± 0.0016	2.48 ± 0.15	11 ± 1.22		91.7 ± 6.43				68 times and 67 times	1.5
